Test results: US5527782A, “5-halo-2,3'-O-cyclocytidines” (ACIC (Canada) Inc., priority 1990, dated 1996)
Counter-ions that a name gives are not always drawn.

Legend:
[1] = test system: A375 melanoma cells; assay: In vivo antitumor activity, A375 melanoma engrafted s.c. in SCID mice; conditions: for Growth Delay: calculated from tumor volume curve; for Tumor Weight (% Inhibition): tumor weight at day 20
Protocol: (§1) In vivo studies were conducted comparing the effectiveness of 5-bromo-2,3'-O-cyclocytidine hydrochloride (5-Br-cycloC) with one or more of 2,3'-O-cyclocytidine hydrochloride (cycloC), 1 -β-D-arabinofuranosylcytosine (Ara-C), Adfiamycin (ADR) and Dacarbazine (DTIC).
(§2) More specifically, the antitumor activity of these compounds were evaluated in two human tumor cell lines engrafted in severe combined immunodeficient (SCID) mice. The particular cell lines used in this Example were A549 (described above in Example 5) and melanoma A375 cells obtained from The American Type Culture Collection (ATCC) (hereinafter referred to as A375).

[2] = test system: human alveolar tumour cell line A549; assay: [methyl-^3 H]thymidine uptake / cytotoxicity in human alveolar tumour cell line A549; assay type: cell-based; conditions: for IC50: Homo sapiens, 96 h, A549, four days incubation, then [methyl-^3 H]thymidine four hours, read-out: IC50 (drug concentrations producing 50% cytotoxicity); for cytotoxic effect on A549 cells compared to 2,3'-O-cyclocytidine hydrochloride: at relatively low concentrations
From the text: In this Example, there is described an in vitro comparison between 2,3'-O-cyclocytidine hydrochloride, 5-bromo-2,3'-O-cyclocytidine hydrochloride, and 5-iodo-2,3'-O-cyclocytidine hydrochloride. The specific in vitro test involved assessing the toxicity of the compounds in a particular cell line by conducting [methyl-^3 H]thymidine uptake experiments.
The particular cell line used in the Example was human alveolar tumour cell line A549 (hereinafter referred to as A549) obtained from The American Type Culture Collection (ATCC) as CCL 185 (lung carcinoma, human).
Cultures were inoculated at 1×10^5 cells/60 mm dish, incubated for four days in the presence of various concentrations (see FIGURE) of 2,3'-O-cyclocytidine hydrochloride (.largecircle.), 5-bromo-2,3'-O-cyclocytidine hydrochloride and 5-iodo-2,3'-O-cyclocytidine hydrochloride. Thereafter, the cells were incubated with a medium supplemented with [methyl-^3 H]thymidine (82 Cl/mmol; 5 μCl/ml) for four hours and lysed, and the amount of radioactivity incorporated into genomic DNA was measured. The IC50 values (drug concentrations producing 50% cytotoxicity) for each compound illustrated in the FIGURE are reported in Table 10. As will be apparent from […]

[3] = MTD in non-tumor bearing SCID mice; conditions: mouse, in vivo, ip, i.p. daily×7
[4] = test system: A549; assay: In vivo antitumor activity, A549 engrafted s.c. in SCID mice; conditions: for Growth Delay: calculated from tumor volume curve; for Tumor Weight (% Inhibition): tumor weight at day 20
Protocol: as §1, §2

[5] = Experiment 1, 1000 mg/kg i.p. daily × 7
[6] = Experiment 1, 200 mg/kg i.p. daily × 7
[7] = Experiment 2, 250 mg/kg i.p. daily × 7
[8] = Experiment 2, 300 mg/kg i.p. × 1
[9] = Experiment 3, 250 mg/kg i.p. daily × 7
[10] = Experiment 3, 250 mg/kg i.p. every other day × 7
[11] = Experiment 4, 250 mg/kg i.p. every other day × 7
[12] = Experiment 1, 250 mg/kg i.p. daily × 7
[13] = Experiment 1, 250 mg/kg i.p. every other day × 7
[14] = Experiment 1, 60 mg/kg i.p. daily × 7
[15] = Experiment 2, 60 mg/kg i.p. daily × 7
[16] = Experiment 2, 60 mg/kg i.p. daily ×
[17] = Experiment 3, 120 mg/kg i.p. every other day × 7
[18] = Experiment 4, 120 mg/kg i.p. every other day × 7

N=c1ccn2c(n1)O[C@@H]1[C@@H](O)[C@H]2O[C@@H]1CO [2,3'-O-Cyclocytidine hydrochloride, 2,3'-O-cyclocytidine hydrochloride, reference compound]
Growth Delay [1, 5]: 2 days | Tumor Weight (% Inhibition) [1, 5]: +6% | Survival Rate (%) ([1]; in vivo, ip, 1000 mg/kg): 100% | Weight Loss (% Decrease) ([1]; in vivo, ip, 1000 mg/kg): 0% | IC50 [2]: 50 µM

N=c1nc2n(cc1I)[C@@H]1O[C@H](CO)[C@H](O2)[C@H]1O [5-Iodo-2,3'-O-cyclocytidine hydrochloride]
IC50 [2]: 10 µM | cytotoxic effect on A549 cells compared to 2,3'-O-cyclocytidine hydrochloride [2]: significantly superior cytotoxic effect

N=c1nc2n(cc1Br)[C@@H]1O[C@H](CO)[C@H](O2)[C@H]1O [5-bromo-2,3'-O-cyclocytidine hydrochloride]
MTD [3]: 250 mg/kg | Growth Delay [1, 6]: 10 days | Tumor Weight (% Inhibition) [1, 6]: 26% | Growth Delay [1, 7]: 10 days | Tumor Weight (% Inhibition) [1, 7]: 43% | Growth Delay [1, 8]: 11 days | Tumor Weight (% Inhibition) [1, 8]: 45% | Growth Delay [1, 9]: 9 days | Tumor Weight (% Inhibition) [1, 9]: 38% | Growth Delay [1, 10]: 12 days | Tumor Weight (% Inhibition) [1, 10]: 43% | Growth Delay [1, 11]: 11 days | Tumor Weight (% Inhibition) [1, 11]: 48% | weight loss during therapy ([1]; in vivo): no weight loss (or in two instances an actual weight gain) | Survival Rate (%) ([1]; in vivo, ip, 200 mg/kg): 100% | Weight Loss (% Decrease) ([1]; in vivo, ip, 200 mg/kg): 0% | Survival Rate (%) ([1]; in vivo, ip, 300 mg/kg): 33.3% | Weight Loss (% Decrease) ([1]; in vivo, ip, 300 mg/kg): 0% | effectiveness in effecting tumor growth delay ([1]; treatment of A375, Table 11): as effective in effecting tumor growth delay as 1-β-D-arabinofuranosylcytosine and dacarbazine, and much more effective than 2,3'-O-cyclocytidine hydrochloride | IC50 [2]: 40 µM | cytotoxic effect on A549 cells compared to 2,3'-O-cyclocytidine hydrochloride [2]: significantly superior cytotoxic effect | decrease of tumor growth ([4]; 250 mg/kg daily×7, over a 20 day period): significantly decreased tumor growth | Growth Delay [4, 12]: 10 days | Tumor Weight (% Inhibition) [4, 12]: 43% | Growth Delay [4, 13]: 6 days | Tumor Weight (% Inhibition) [4, 13]: 12% | survival rate ([4]; in vivo): 100% | weight loss ([4]; in vivo): no weight loss (or an actual weight in one stance) | Survival Rate (%) ([4]; in vivo, ip, 250 mg/kg): 100%

COc1cccc2c1C(=O)c1c(O)c3c(c(O)c1C2=O)C[C@@](O)(C(=O)CO)C[C@@H]3O[C@H]1C[C@H](N)[C@H](O)[C@H](C)O1 [ADR, Adfiamycin]
survival rate ([4]; A549, Table 12): ≤ 33.3% | Survival Rate (%) ([4]; Experiment 1, 7 mg/kg i.p. × 1): 16.7% | Growth Delay ([4]; Experiment 1, 7 mg/kg i.p. × 1): 5 days | Tumor Weight (% Inhibition) ([4]; Experiment 1, 7 mg/kg i.p. × 1): 6% | Survival Rate (%) ([4]; Experiment 2, 5 mg/kg i.p. × 1): 16.7% | Growth Delay ([4]; Experiment 2, 5 mg/kg i.p. × 1): 6 days | Tumor Weight (% Inhibition) ([4]; Experiment 2, 5 mg/kg i.p. × 1): 24% | weight loss ([4]; in vivo): weight loss | Weight Loss (% Decrease) ([4]; in vivo, ip, 5 mg/kg): 32% | Weight Loss (% Decrease) ([4]; in vivo, ip, 7 mg/kg): 16%

Nc1ccn([C@@H]2O[C@H](CO)[C@@H](O)[C@@H]2O)c(=O)n1 [Ara-C, 1 -β-D-arabinofuranosylcytosine]
Survival Rate (%) [1, 14]: 100% | Growth Delay [1, 14]: 10 days | Tumor Weight (% Inhibition) [1, 14]: 45% | Survival Rate (%) [1, 15]: 100% | Growth Delay [1, 15]: 11 days | Tumor Weight (% Inhibition) [1, 15]: 39% | survival rate ([4]; A549, Table 12): ≤ 33.3% | Survival Rate (%) [4, 14]: 33.3% | Growth Delay [4, 14]: 7 days | Tumor Weight (% Inhibition) [4, 14]: 38% | Survival Rate (%) [4, 16]: 33.3% | Growth Delay [4, 16]: 11 days | Tumor Weight (% Inhibition) [4, 16]: 47% | weight loss ([4]; in vivo): weight loss

CN(C)/N=N/c1[nH]cnc1C(N)=O [DTIC, Dacarbazine, reference compound]
Growth Delay [1, 17]: 12 days | Tumor Weight (% Inhibition) [1, 17]: 53% | Growth Delay [1, 18]: 13 days | Tumor Weight (% Inhibition) [1, 18]: 59%
